# Reference: US12435044B2, “Pyridazinone herbicides and pyridazinone intermediates used to prepare a herbicide” (FMC Corporation, priority 2018, dated 2025)
# Tests used:
# Experiment in all cases: Test C pre-/postemergence greenhouse test
# Assay type in all cases: in vivo
# corn (Zea mays) = settings: scale 0 to 100
# Description: (§1) Seeds of plant species selected from blackgrass (Alopecurus myosuroides), ryegrass, Italian (Lolium multiflorum), wheat, winter (winter wheat, Triticum aestivum), galium (catchweed bedstraw, Galium aparine), corn (Zea mays), crabgrass, large (Digitaria sanguinalis), foxtail, giant (Setaria faberii), johnsongrass (Sorghum halepense), lambsquarters (Chenopodium album), morningglory (Ipomoea coccinea), nutsedge, yellow (Cyperus esculentus), pigweed (Amaranthus retroflexus), ragweed (common ragweed, Ambrosia elatior), soybean (Glycine max), barnyardgrass (Echinochloa crus-galli), oilseed rape (Brassica napus), waterhemp (common waterhemp, Amaranthus rudis), pigweed, palmer (Amaranthus palmeri), kochia (Kochia scoparia), oat, wild (Avena fatua), surinam grass (Brachiaria decumbens), windgrass (Apera spica-venti), poinsettia, wild (Euphorbia heterophylla) and velvetleaf (Abutilon theophrasti) were planted into a silt loam soil and treated preemergence with test chemicals formulated in a non-phytotoxic solvent mixture which included a surfactant.
# (§2) At the same time, plants selected from these crop and weed species and also chickweed (common chickweed, Stellaria media), buckwheat, wild (Polygonum convolvulus), mustard, wild (Sinapis arvensis), field poppy (Papaver rhoeas), field violet (Viola arvensis), nightshade (eastern black nightshade, Solanum ptycanthum), speedwell (bird's-eye speedwell, Veronica persica), horseweed (Conyza canadensis), cutleaf geranium (Geranium dissectum), and Canada thistle (Cirsium arvense) were planted in pots containing Redi-Earth® planting medium (Scotts Company, 14111 Scottslawn Road, Marysville, Ohio 43041) comprising spaghnum peat moss, vermiculite, wetting agent and starter nutrients and treated with postemergence applications of test chemicals formulated in the same manner. Plants ranged in height from 2 to 18 cm (1- to 4-leaf stage) for postemergence treatments. Treated plants and controls were maintained in a greenhouse for 13 to 21 d, after which time all species were compared to controls and visually evaluated. Plant response ratings, summarized in Table C-1 (postemergence) and C-2 (preemergence), are based on a scale of 0 to 100 where 0 is no effect and 100 is complete control. A dash (-) response means no test result.
# [1] = test system: blackgrass (Alopecurus myosuroides); settings: scale 0 to 100
# Description: as §1, §2
# oat, wild (Avena fatua) = settings: Postemergence, scale 0 to 100
# Description: as §1, §2
# [2] = test system: ryegrass, Italian (Lolium multiflorum); settings: scale 0 to 100
# Description: as §1, §2
# [3] = test system: crabgrass, large (Digitaria sanguinalis); settings: scale 0 to 100
# Description: as §1, §2
# [4] = test system: foxtail, giant (Setaria faberii); settings: scale 0 to 100
# Description: as §1, §2
# kochia (Kochia scoparia) = settings: Postemergence, scale 0 to 100
# Description: as §1, §2
# [5] = test system: ragweed (common ragweed, Ambrosia elatior); settings: scale 0 to 100
# Description: as §1, §2
# [6] = test system: johnsongrass (Sorghum halepense); settings: scale 0 to 100
# Description: as §1, §2
# [7] = test system: lambsquarters (Chenopodium album); settings: scale 0 to 100
# Description: as §1, §2
# [8] = test system: morningglory (Ipomoea coccinea); settings: scale 0 to 100
# Description: as §1, §2
smiles,measurement,setting,value
"Cc1ccc2ccc(C)c(-c3c(O)c(Cl)nn(C)c3=O)c2c1 [Cpd. No. 20, 6-chloro-4-(2,7-dimethyl-1-naphthalenyl)-5-hydroxy-2-methyl-3(2H)-pyridazinone]","Plant response rating, Corn","corn (Zea mays); Postemergence, 16 g ai/ha",0
same,"Plant response rating, Corn","corn (Zea mays); Postemergence, 31 g ai/ha",5
same,"Plant response rating, Corn","corn (Zea mays); Postemergence, 62 g ai/ha",5
same,"Plant response rating, Corn","corn (Zea mays); Postemergence, 125 g ai/ha",20
same,"Plant response rating, Corn","corn (Zea mays); Preemergence, 31 g ai/ha",0
same,"Plant response rating, Corn","corn (Zea mays); Preemergence, 61 g ai/ha",0
same,"Plant response rating, Corn","corn (Zea mays); Preemergence, 62 g ai/ha",5
same,"Plant response rating, Corn","corn (Zea mays); Preemergence, 125 g ai/ha",35
same,"Plant response rating, Blackgrass","[1]; Postemergence, 16 g ai/ha",20
same,"Plant response rating, Blackgrass","[1]; Postemergence, 31 g ai/ha",30
same,"Plant response rating, Blackgrass","[1]; Postemergence, 62 g ai/ha",40
same,"Plant response rating, Blackgrass","[1]; Postemergence, 125 g ai/ha",45
same,"Plant response rating, Blackgrass","[1]; Preemergence, 31 g ai/ha",85
same,"Plant response rating, Blackgrass","[1]; Preemergence, 61 g ai/ha",20
same,"Plant response rating, Blackgrass","[1]; Preemergence, 62 g ai/ha",85
same,"Plant response rating, Blackgrass","[1]; Preemergence, 125 g ai/ha",90
same,"Plant response rating, Oat, Wild","oat, wild (Avena fatua); 16 g ai/ha",35
same,"Plant response rating, Oat, Wild","oat, wild (Avena fatua); 31 g ai/ha",55
same,"Plant response rating, Oat, Wild","oat, wild (Avena fatua); 62 g ai/ha",70
same,"Plant response rating, Oat, Wild","oat, wild (Avena fatua); 125 g ai/ha",90
same,"Plant response rating, Ryegrass, Italian","[2]; Postemergence, 16 g ai/ha",65
same,"Plant response rating, Ryegrass, Italian","[2]; Postemergence, 31 g ai/ha",85
same,"Plant response rating, Ryegrass, Italian","[2]; Postemergence, 62 g ai/ha",95
same,"Plant response rating, Ryegrass, Italian","[2]; Postemergence, 125 g ai/ha",95
same,"Plant response rating, Ryegrass, Italian","[2]; Preemergence, 31 g ai/ha",100
same,"Plant response rating, Ryegrass, Italian","[2]; Preemergence, 61 g ai/ha",98
same,"Plant response rating, Ryegrass, Italian","[2]; Preemergence, 62 g ai/ha",100
same,"Plant response rating, Ryegrass, Italian","[2]; Preemergence, 125 g ai/ha",100
same,"Plant response rating, Crabgrass, Large","[3]; Postemergence, 16 g ai/ha",40
same,"Plant response rating, Crabgrass, Large","[3]; Postemergence, 31 g ai/ha",40
same,"Plant response rating, Crabgrass, Large","[3]; Postemergence, 62 g ai/ha",70
same,"Plant response rating, Crabgrass, Large","[3]; Postemergence, 125 g ai/ha",80
same,"Plant response rating, Crabgrass, Large","[3]; Preemergence, 31 g ai/ha",60
same,"Plant response rating, Crabgrass, Large","[3]; Preemergence, 61 g ai/ha",60
same,"Plant response rating, Crabgrass, Large","[3]; Preemergence, 62 g ai/ha",95
same,"Plant response rating, Crabgrass, Large","[3]; Preemergence, 125 g ai/ha",100
same,"Plant response rating, Foxtail, Giant","[4]; Postemergence, 16 g ai/ha",70
same,"Plant response rating, Foxtail, Giant","[4]; Postemergence, 31 g ai/ha",85
same,"Plant response rating, Foxtail, Giant","[4]; Postemergence, 62 g ai/ha",85
same,"Plant response rating, Foxtail, Giant","[4]; Postemergence, 125 g ai/ha",95
same,"Plant response rating, Foxtail, Giant","[4]; Preemergence, 31 g ai/ha",100
same,"Plant response rating, Foxtail, Giant","[4]; Preemergence, 61 g ai/ha",98
same,"Plant response rating, Foxtail, Giant","[4]; Preemergence, 62 g ai/ha",100
same,"Plant response rating, Foxtail, Giant","[4]; Preemergence, 125 g ai/ha",100
same,"Plant response rating, Kochia",kochia (Kochia scoparia); 16 g ai/ha,80
same,"Plant response rating, Kochia",kochia (Kochia scoparia); 31 g ai/ha,85
same,"Plant response rating, Kochia",kochia (Kochia scoparia); 62 g ai/ha,90
same,"Plant response rating, Kochia",kochia (Kochia scoparia); 125 g ai/ha,98
same,"Plant response rating, Ragweed","[5]; Postemergence, 16 g ai/ha",85
same,"Plant response rating, Ragweed","[5]; Postemergence, 31 g ai/ha",90
same,"Plant response rating, Ragweed","[5]; Postemergence, 62 g ai/ha",95
same,"Plant response rating, Ragweed","[5]; Postemergence, 125 g ai/ha",98
same,"Plant response rating, Ragweed","[5]; Preemergence, 31 g ai/ha",100
same,"Plant response rating, Ragweed","[5]; Preemergence, 61 g ai/ha",65
same,"Plant response rating, Ragweed","[5]; Preemergence, 62 g ai/ha",100
same,"Plant response rating, Ragweed","[5]; Preemergence, 125 g ai/ha",100
same,"Plant response rating, Johnsongrass","[6]; Postemergence, 16 g ai/ha",5
same,"Plant response rating, Johnsongrass","[6]; Postemergence, 31 g ai/ha",10
same,"Plant response rating, Johnsongrass","[6]; Postemergence, 62 g ai/ha",30
same,"Plant response rating, Johnsongrass","[6]; Postemergence, 125 g ai/ha",35
same,"Plant response rating, Johnsongrass","[6]; Preemergence, 31 g ai/ha",40
same,"Plant response rating, Johnsongrass","[6]; Preemergence, 61 g ai/ha",35
same,"Plant response rating, Johnsongrass","[6]; Preemergence, 62 g ai/ha",30
same,"Plant response rating, Johnsongrass","[6]; Preemergence, 125 g ai/ha",65
same,"Plant response rating, Lambsquarters","[7]; Postemergence, 16 g ai/ha",75
same,"Plant response rating, Lambsquarters","[7]; Postemergence, 31 g ai/ha",90
same,"Plant response rating, Lambsquarters","[7]; Postemergence, 62 g ai/ha",95
same,"Plant response rating, Lambsquarters","[7]; Postemergence, 125 g ai/ha",95
same,"Plant response rating, Lambsquarters","[7]; Preemergence, 31 g ai/ha",75
same,"Plant response rating, Lambsquarters","[7]; Preemergence, 61 g ai/ha",80
same,"Plant response rating, Lambsquarters","[7]; Preemergence, 62 g ai/ha",100
same,"Plant response rating, Lambsquarters","[7]; Preemergence, 125 g ai/ha",100
same,"Plant response rating, Morningglory","[8]; Postemergence, 16 g ai/ha",100
same,"Plant response rating, Morningglory","[8]; Postemergence, 31 g ai/ha",100
same,"Plant response rating, Morningglory","[8]; Postemergence, 62 g ai/ha",100
same,"Plant response rating, Morningglory","[8]; Postemergence, 125 g ai/ha",100
same,"Plant response rating, Morningglory","[8]; Preemergence, 31 g ai/ha",85
same,"Plant response rating, Morningglory","[8]; Preemergence, 61 g ai/ha",70
same,"Plant response rating, Morningglory","[8]; Preemergence, 62 g ai/ha",95
same,"Plant response rating, Morningglory","[8]; Preemergence, 125 g ai/ha",95
